Read-outs that look alike come from different tables or passages of the source.
How the values were obtained:
[1] = target: T1, human recombinant histamine H1 receptor (Homo sapiens, UniProt P35367); assay: Histamine H1 radioligand binding ([3H]Pyrilamine); conditions: for inhibition at 0.01 µM: 10 nM (0.01 μM) compound; for inhibition at 0.1 µM: 0.1 μM compound
T1 construct: expressed in transfected cells; host or cells: CHO cells
Procedure, shortened: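 CHO-expressed receptor in modified Tris-HCl buffer (50 mM, pH 7.4; 2 mM MgCl2, 100 mM NaCl, 250 mM sucrose); bound ligand measured after filtration and washing.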

[2] = target: T2, human recombinant histamine H2 receptor (Homo sapiens, UniProt P25021); assay: Histamine H2 radioligand binding ([125I]Aminopotentidine); conditions: for inhibition at 0.3 µM: 0.3 μM compound
T2 construct: expressed in transfected cells; host or cells: CHO-K1 cells
Procedure, shortened: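 This radioligand binding assay measured displacement of [125I]Aminopotentidine from recombinant human histamine H2 receptors. Compounds were dissolved in 1% DMSO vehicle. Specific binding was calculated by subtracting non-specific binding, defined using 3 μM Tiotidine, and activity was reported as percentage inhibition of that specific binding.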

[3] = target: T3, human recombinant adrenergic α2A receptor (Homo sapiens, UniProt P08913); assay: Adrenergic α2A radioligand binding ([3H]MK-912); set-up: Inhibition of ligand binding, Adren. alpha2A: concentration or dose not given beside the values; conditions: for Inhibition of ligand binding, Adren. alpha2A: percent inhibition of specific binding
T3 construct: expressed in transfected cells; host or cells: insect Sf9 cells
T3 sequence (P08913 1-465): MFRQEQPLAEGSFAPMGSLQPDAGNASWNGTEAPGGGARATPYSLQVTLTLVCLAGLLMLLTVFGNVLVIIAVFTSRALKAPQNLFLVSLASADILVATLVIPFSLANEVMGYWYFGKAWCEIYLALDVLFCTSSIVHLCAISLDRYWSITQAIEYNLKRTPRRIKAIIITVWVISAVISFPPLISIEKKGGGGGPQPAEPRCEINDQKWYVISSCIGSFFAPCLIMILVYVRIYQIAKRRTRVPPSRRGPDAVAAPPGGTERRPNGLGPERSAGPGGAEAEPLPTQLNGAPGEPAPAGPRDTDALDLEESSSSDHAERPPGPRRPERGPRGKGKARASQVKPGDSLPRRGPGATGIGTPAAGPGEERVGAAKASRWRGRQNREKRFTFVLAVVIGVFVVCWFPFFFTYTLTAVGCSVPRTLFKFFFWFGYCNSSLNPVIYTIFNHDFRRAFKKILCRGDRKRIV
Protocol: To evaluate in radioligand binding assays the activity of compounds of the invention, human recombinant adrenergic α2A receptor expressed in insect Sf9 cells (Uhlen S et al. J Pharmacol Exp Ther. 271:1558, 1994) in a modified Tris-HCl buffer (50 mM Tris-HCl, pH 7.4, 12.5 mM MgCl2, 2 mM EDTA) was used. Compounds of invention were incubated with 1 nM [^3H]MK-912 for 60 minutes at 25° C. MK912 is (2S-trans)-1,3,4,5′,6,6′,7,12b-octahydro-1′,3′-dimethyl-spiro[2H-benzofuro[2,3-a]quinolizine-2,4′(1′H)-pyrimidin]-2′(3′H)-one hydrochloride Non-specific binding was estimated in the presence of 10 μM WB-4101 (2-(2,6-Dimethoxyphenoxyethyl)aminomethyl-1,4-benzodioxane hydrochloride). Receptor proteins were filtered and washed, the filters were then counted to determine [^3H]MK-912 specifically bound. […] Biochemical assay results are presented as the percent inhibition of specific binding in Table 6.

[4] = target: T4, human recombinant dopamine D2L receptor (Homo sapiens, UniProt P14416); assay: Dopamine D2L radioligand binding ([3H]Spiperone); conditions: for Inhibition of ligand binding, Dop. D2L: percent inhibition of specific binding
T4 construct: expressed in transfected cells; host or cells: CHO cells
Protocol: Non-specific binding was estimated in the presence of 10 μM Haloperidol. Receptor proteins were filtered and washed, the filters were then counted to determine [^3H]Spiperone specifically bound. […] Biochemical assay results are presented as the percent inhibition of specific binding in Table 6.

[5] = target: T5, human recombinant serotonin (5-Hydroxytryptamine) 5-HT2A receptor (Homo sapiens, UniProt P28223); assay: Serotonin 5-HT2A radioligand binding ([3H]Ketanserin); conditions: for Inhibition of ligand binding, Ser. 5-HT2A: percent inhibition of specific binding
T5 construct: expressed in transfected cells; host or cells: CHO-K1 cells
Protocol: Compounds of the invention were incubated with 0.5 nM [^3H]Ketanserin for 60 minutes at 25° C. Non-specific binding was estimated in the presence of 1 μM Mianserin. Receptor proteins were filtered and washed, the filters were then counted to determine [^3H]Ketanserin specifically bound. […] Biochemical assay results are presented as the percent inhibition of specific binding in Table 6.

[6] = 1 μM compound, […] [3H]Pyrilamine, read-out: Histamine Binding H1, percent inhibition of specific binding
[7] = percent inhibition of specific binding, screened at 1 μM, read-out: Inhibition of ligand binding, Hist. H1
[8] = 1 μM compound, 0.1 nM [125I]Aminopotentidine, read-out: Histamine Binding H2, percent inhibition of specific binding
[9] = percent inhibition of specific binding, screened at 1 μM, read-out: Inhibition of ligand binding, Hist. H2
[10] = […] [3H]Pyrilamine, read-out: Histamine Binding H1, percent inhibition of specific binding
[11] = 0.1 nM [125I]Aminopotentidine, read-out: Histamine Binding H2, percent inhibition of specific binding

T2 sequence (P25021 whole entry): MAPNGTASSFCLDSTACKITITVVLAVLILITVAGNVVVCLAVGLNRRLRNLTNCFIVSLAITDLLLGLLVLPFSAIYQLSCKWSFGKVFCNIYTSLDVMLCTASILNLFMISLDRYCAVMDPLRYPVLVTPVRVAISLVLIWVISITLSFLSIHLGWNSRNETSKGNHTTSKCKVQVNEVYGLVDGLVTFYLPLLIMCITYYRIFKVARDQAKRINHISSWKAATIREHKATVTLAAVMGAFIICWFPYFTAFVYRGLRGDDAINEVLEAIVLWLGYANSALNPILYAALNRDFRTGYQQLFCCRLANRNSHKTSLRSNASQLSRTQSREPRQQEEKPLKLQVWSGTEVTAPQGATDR
T1 sequence (P35367 whole entry): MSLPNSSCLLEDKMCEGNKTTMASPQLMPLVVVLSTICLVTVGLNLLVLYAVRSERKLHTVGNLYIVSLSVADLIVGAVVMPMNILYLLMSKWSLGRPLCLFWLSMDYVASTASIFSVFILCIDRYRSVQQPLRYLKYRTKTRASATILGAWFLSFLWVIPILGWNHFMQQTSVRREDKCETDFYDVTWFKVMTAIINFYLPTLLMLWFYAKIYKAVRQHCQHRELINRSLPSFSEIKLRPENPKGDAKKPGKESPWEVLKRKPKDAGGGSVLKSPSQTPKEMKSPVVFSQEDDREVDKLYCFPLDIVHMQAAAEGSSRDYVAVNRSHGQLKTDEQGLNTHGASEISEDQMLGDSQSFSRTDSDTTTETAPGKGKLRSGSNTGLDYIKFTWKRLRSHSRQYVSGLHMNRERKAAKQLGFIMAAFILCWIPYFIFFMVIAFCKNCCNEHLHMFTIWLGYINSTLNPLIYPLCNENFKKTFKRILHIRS
T5 sequence (P28223 whole entry): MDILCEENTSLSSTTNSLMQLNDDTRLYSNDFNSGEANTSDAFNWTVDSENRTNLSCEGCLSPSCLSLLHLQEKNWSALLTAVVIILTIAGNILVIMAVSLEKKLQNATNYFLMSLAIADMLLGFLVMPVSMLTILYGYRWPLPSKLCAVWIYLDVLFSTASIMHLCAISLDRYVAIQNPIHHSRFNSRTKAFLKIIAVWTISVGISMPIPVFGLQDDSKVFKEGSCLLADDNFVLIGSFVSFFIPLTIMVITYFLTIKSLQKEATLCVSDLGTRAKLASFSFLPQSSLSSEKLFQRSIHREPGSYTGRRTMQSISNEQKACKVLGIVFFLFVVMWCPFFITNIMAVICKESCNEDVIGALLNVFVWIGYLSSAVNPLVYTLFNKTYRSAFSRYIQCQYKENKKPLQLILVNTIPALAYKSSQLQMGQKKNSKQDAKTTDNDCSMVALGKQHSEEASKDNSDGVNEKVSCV
T4 sequence (P14416 whole entry): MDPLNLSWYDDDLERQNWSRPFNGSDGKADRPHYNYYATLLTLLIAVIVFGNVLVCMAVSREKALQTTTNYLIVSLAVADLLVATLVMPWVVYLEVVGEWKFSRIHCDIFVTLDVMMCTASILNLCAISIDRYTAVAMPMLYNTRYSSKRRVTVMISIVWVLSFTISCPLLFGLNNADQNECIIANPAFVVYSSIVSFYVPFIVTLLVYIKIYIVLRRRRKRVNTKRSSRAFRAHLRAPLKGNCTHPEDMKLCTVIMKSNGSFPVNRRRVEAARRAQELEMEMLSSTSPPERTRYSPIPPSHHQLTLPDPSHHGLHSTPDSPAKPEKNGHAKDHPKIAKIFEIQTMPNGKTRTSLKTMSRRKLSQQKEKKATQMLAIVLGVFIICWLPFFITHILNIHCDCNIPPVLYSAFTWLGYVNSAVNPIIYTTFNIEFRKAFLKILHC

For `CCOC(=O)N1CCc2c(c3cc(-c4cccnc4)ccc3n2CCc2ccc(C)nc2)C1` [Compound 19, ethyl 3,4-dihydro-5-(2-(6-methylpyridin-3-yl)ethyl)-8-(pyridin-3-yl)-1H-pyrido[4,3-b]indole-2(5H)-carboxylate], the inhibition at 1 µM [1, 6] was -3%, the inhibition at 1 µM [1, 7] was -3% and the inhibition at 1 µM [2, 8] was 10%. The inhibition at 1 µM [2, 9] was 10%, the “Inhibition of ligand binding, Adren. alpha2A” value (from here on “Inhibition … Adren. alpha2A”) [3] was −8% and the “Inhibition of ligand binding, Dop. D2L” value [4] was −5%. The “Inhibition of ligand binding, Ser. 5-HT2A” value (“Inhibition … Ser. 5-HT2A” below) [5] was 2%.
`CC1CCN(C(=O)CCn2c3c(c4cc(Cl)ccc42)CN(C)CC3)CC1` [Compound 325, 3-(8-chloro-1,2,3,4-tetrahydro-2-methylpyrido[4,3-b]indol-5-yl)-1-(4-methylpiperidin-1-yl)propan-1-one] was tested, and the inhibition at 1 µM [1, 7] was 90%, the inhibition at 1 µM [2, 9] was 22% and the “Inhibition … Adren. alpha2A” value [3] was 58%. The “Inhibition of ligand binding, Dop. D2L” value [4] was −3% and the “Inhibition … Ser. 5-HT2A” value [5] was 53%.
With `Cc1ccc2c(c1)c1c(n2CCc2ccc(Cl)cc2)CCN(C)C1` [Compound 32, 5-(4-chlorophenethyl)-2,3,4,5-tetrahydro-2,8-dimethyl-1H-pyrido[4,3-b]indole] the inhibition at 0.01 µM [1, 10] was 52%, the inhibition at 0.1 µM [1, 10] was 87% and the inhibition at 1 µM [1, 6] was 101%. For the same compound, the inhibition at 1 µM [1, 7] was 101%, the inhibition at 0.3 µM [2, 11] was 99% and the inhibition at 1 µM [2, 8] was 101%. For the same compound, the inhibition at 1 µM [2, 9] was 101%, the “Inhibition … Adren. alpha2A” value [3] was 97% and the “Inhibition of ligand binding, Dop. D2L” value [4] was 82%. For the same compound, the “Inhibition … Ser. 5-HT2A” value [5] was 96%.
`Cc1ccc2c(c1)c1c(n2CC(=O)N2CCOCC2)CCN(C)C1` [Compound 330, 2-(1,2,3,4-tetrahydro-2,8-dimethylpyrido[4,3-b]indol-5-yl)-1-morpholinoethanone] was tested, and the inhibition at 1 µM [1, 7] was 8%, the inhibition at 1 µM [2, 9] was 6% and the “Inhibition … Adren. alpha2A” value [3] was 1%. The “Inhibition of ligand binding, Dop. D2L” value [4] was −8% and the “Inhibition … Ser. 5-HT2A” value [5] was 14%.
With `CN1CCc2c(c3cc(Cl)ccc3n2CCc2ccccn2)C1` [Compound 30, 8-chloro-2,3,4,5-tetrahydro-2-methyl-5-(2-(pyridin-2-yl)ethyl)-1H-pyrido[4,3-b]indole] the inhibition at 1 µM [1, 6] was 80%, the inhibition at 1 µM [1, 7] was 80% and the inhibition at 1 µM [2, 8] was 34%. The inhibition at 1 µM [2, 9] was 34%, the “Inhibition … Adren. alpha2A” value [3] was 84% and the “Inhibition of ligand binding, Dop. D2L” value [4] was 29%. The “Inhibition … Ser. 5-HT2A” value [5] was 91%.
Compound `Cc1ccc2c(c1)c1c(n2CCc2nc(-c3ccccc3)cs2)CCN(C)C1` [Compound C1-5] has an inhibition at 1 µM ([1]; compounds screened at 1 μM, read-out: Inhibition of ligand binding, Hist. H1 (percent inhibition of specific binding)) of 100%, an inhibition at 1 µM ([2]; compounds screened at 1 μM, read-out: Inhibition of ligand binding, Hist. H2 (percent inhibition of specific binding)) of 73% and an inhibition at 1 µM ([3]; compounds screened at 1 μM, read-out: Inhibition of ligand binding, Adren. alpha2A (percent inhibition of specific binding)) of 92%. For the same compound, the inhibition at 1 µM ([4]; compounds screened at 1 μM, read-out: Inhibition of ligand binding, Dop. D2L (percent inhibition of specific binding)) was 36% and the inhibition at 1 µM ([5]; read-out: Inhibition of ligand binding, Ser. 5-HT2A (percent inhibition of specific binding)) was 97%.
`COc1ccc(CCn2c3c(c4cc(Cl)ccc42)CN(C)CC3)cc1F` [Compound 337, 5-(3-fluoro-4-methoxyphenethyl)-8-chloro-2,3,4,5-tetrahydro-2-methyl-1H-pyrido[4,3-b]indole] was tested, and the inhibition at 1 µM [1, 7] was 99%, the inhibition at 1 µM [2, 9] was 92% and the “Inhibition … Adren. alpha2A” value [3] was 97%. For the same compound, the “Inhibition of ligand binding, Dop. D2L” value [4] was 81% and the “Inhibition … Ser. 5-HT2A” value [5] was 101%.
With `Cc1ccc2c(c1)c1c(n2CCc2ccc(CO)nc2)CCN(C)C1` [Compound 267] the inhibition at 1 µM [1, 7] was 96%, the inhibition at 1 µM [2, 9] was 42% and the “Inhibition … Adren. alpha2A” value [3] was 49%. For the same compound, the “Inhibition of ligand binding, Dop. D2L” value [4] was 21% and the “Inhibition … Ser. 5-HT2A” value [5] was 73%.
`Cc1ccc(CCn2c3c(c4ccccc42)CN(C)CC3)cc1` [Compound 1, 2,3,4,5-tetrahydro-2-methyl-5-(4-methylphenethyl)-1H-pyrido[4,3-b]indole] was tested, and the inhibition at 0.03 µM ([1]; 0.03 μM compound, […] [3H]Pyrilamine, read-out: Histamine Binding H1, percent inhibition of specific binding) was 32%, the inhibition at 0.1 µM [1, 10] was 56% and the inhibition at 1 µM [1, 6] was 91%. It also gave an inhibition at 1 µM [1, 7] of 91%, an inhibition at 0.1 µM ([2]; 0.1 μM compound, 0.1 nM [125I]Aminopotentidine, read-out: Histamine Binding H2, percent inhibition of specific binding) of 33% and an inhibition at 0.3 µM [2, 11] of 57%. The inhibition at 1 µM [2, 8] was 82%, the inhibition at 1 µM [2, 9] was 82% and the “Inhibition … Adren. alpha2A” value [3] was 99%. The “Inhibition of ligand binding, Dop. D2L” value [4] was 62% and the “Inhibition … Ser. 5-HT2A” value [5] was 95%.
For `COc1ccc(CCn2c3c(c4cc(Cl)ccc42)CN(C)CC3)cc1` [Compound 336, 8-Chloro-5-[2-(4-methoxy-phenyl)-ethyl]-2-methyl-2,3,4,5-tetrahydro-1H pyrido[4,3-b]indole], the inhibition at 1 µM [1, 7] was 107%, the inhibition at 1 µM [2, 9] was 101% and the “Inhibition … Adren. alpha2A” value [3] was 96%. For the same compound, the “Inhibition of ligand binding, Dop. D2L” value [4] was 82% and the “Inhibition … Ser. 5-HT2A” value [5] was 96%.
`CN1CCc2c(c3cc(Cl)ccc3n2CC(=O)N2CCS(=O)(=O)CC2)C1` [Compound 295] was tested, and the inhibition at 1 µM [1, 7] was -3%, the inhibition at 1 µM [2, 9] was 10% and the “Inhibition … Adren. alpha2A” value [3] was 26%. The “Inhibition of ligand binding, Dop. D2L” value [4] was −7% and the “Inhibition … Ser. 5-HT2A” value [5] was 0%.
For `Cc1ccc2c(c1)c1c(n2CCC2CCCCC2)CCN(C)C1` [Compound 163, 5-(2-cyclohexylethyl)-2,3,4,5-tetrahydro-2,8-dimethyl-1H-pyrido[4,3-b]indole], the inhibition at 0.01 µM [1, 10] was 59%, the inhibition at 0.1 µM [1, 10] was 92% and the inhibition at 1 µM [1, 6] was 103%. It also gave an inhibition at 1 µM [1, 7] of 103%, an inhibition at 1 µM [2, 8] of 88% and an inhibition at 1 µM [2, 9] of 88%. The “Inhibition … Adren. alpha2A” value [3] was 93%, the “Inhibition of ligand binding, Dop. D2L” value [4] was 36% and the “Inhibition … Ser. 5-HT2A” value [5] was 92%.
`CC1CCCCN1C(=O)Cn1c2c(c3cc(Cl)ccc31)CN(C)CC2` (centres unmarked) [Compound 321, 2-(8-chloro-1,2,3,4-tetrahydro-2-methylpyrido[4,3-b]indol-5-yl)-1-(2-methylpiperidin-1-yl)ethanone] was tested, and the inhibition at 1 µM [1, 7] was 50%, the inhibition at 1 µM [2, 9] was 25% and the “Inhibition … Adren. alpha2A” value [3] was 12%. The “Inhibition of ligand binding, Dop. D2L” value [4] was −1%.
Work on `CN1CCc2c(c3cc(Cl)ccc3n2CC(=O)N2CCOCC2)C1` [Compound 238, 2-(8-chloro-1,2,3,4-tetrahydro-2-methylpyrido[4,3-b]indol-5-yl)-1-morpholinoethanone] yielded an inhibition at 1 µM [1, 6] of 26%, an inhibition at 1 µM [1, 7] of 26% and an inhibition at 1 µM [2, 8] of 6%. The inhibition at 1 µM [2, 9] was 6%, the “Inhibition … Adren. alpha2A” value [3] was −13% and the “Inhibition of ligand binding, Dop. D2L” value [4] was −1%.
`CN1CCc2c(c3cc(Cl)ccc3n2CC(=O)N2CCNCC2)C1` [Compound 244] gave an inhibition at 1 µM [1, 6] of 15%, an inhibition at 1 µM [1, 7] of 15% and an inhibition at 1 µM [2, 8] of 10%. The inhibition at 1 µM [2, 9] was 10%, the “Inhibition … Adren. alpha2A” value [3] was 22% and the “Inhibition of ligand binding, Dop. D2L” value [4] was 6%.
